# In patent US20040019082A1, “Reversible infertility in male mice following oral administration of alkylated imino sugars: a non-hormonal approach to male contraception” (United Therapeutics Corporation, priority 2002, published 2004):
# Key:
# epididymal spermatozoa [1] = test: Fluorescence microscopy of epididymal spermatozoa (nuclear morphology, acrosomal antigens); type: in vivo, mouse
# Method: Fluorescence microscopy—For immunofluorescence, freshly exised vasa deferentia were stripped and caudae epididymides were dissociated with forceps in M2 medium, and spermatozoa were allowed to disperse for 15 min. The resultant suspensions were used to prepare smears on glass slides. After drying in air for 1 hr, cells were fixed in methanol for 2 min., dried and stored at room temperature or 4° C. for one to five days. Before immunostaining smears were immersed in methanol for 5 min., dried, and wetted in PBS containing 0.5% BSA and 0.15 M glycine (PBG). Slides were stained with monoclonal antibodies, either Mab18.6 (1:20 in PBG (Moore, H. D., Smith, C. A., Hartman, T. D. & Bye, A. P. (1987) Gamete Res 17, 245-9)), anti-sp56 (1:67 in PBG, clone 7C5, QED Bioscience (Cheng, A., Le, T., Palacios, M., Bookbinder, L. H., Wassarman, P. M., Suzuki, F. & Bleil, J. D. (1994) J Cell Biol 125, 867-78), and goat anti-mouse immunoglobulins γ and light chains-specific fluorescein isothiocyanate-conjugate (Ortho) according to van Dongen et al. (van Dongen, J. M., Willemsen, R., Ginns, E. I., Sips, H. j., Tager, J. M., Barranger, J. A. & Reuser, A. J. (1985) Eur J Cell Biol 39, 179-189.) Following immunostaining, nuclei were stained for 2 min in 5 μg/ml Hoechst 33342 (Molecular Probes); slides were rinsed in distilled water, and mounted with Vectashield (Vector). Fluorescent probes were examined using an Olympus BX50 microscope equipped with a Princeton Instruments CCD camera. Images were aquired, false-coloured, and overlaid with Metamorph v3.5 software, and further processed with Adobe Photoshop.
# epididymal spermatozoa [2] = test: Electron microscopy of epididymal spermatozoa; type: in vivo, mouse
# Method: For scanning electron microscopy, dried smears of murine spermatozoa were prepared as described above. Cells were fixed for 20 min in 4% paraformaldehyde in PBS, transferred to 70, 80 and 95% ethanol, critical-point dried in a Polaron CPD7501 instrument, gold-coated using a Nanotech Semprep2, and examined in a Hitachi S800 FEG-SEM at 3 kV. For transmission electronmicroscopy epididymal spermatozoa were collected in 1 mg/ml cold water soluble polyvinylalcohol in PBS, and spun for 10 min. at 600×g. Pelleted cells were fixed overnight at 4° C. with 1% glutaraldehyde, 0.2% picric acid in 0.2 M cacodylic acid pH 7.4, washed once in 0.1 M cacodylic acid pH 7.4, and stored in 70% ethanol. Cells were postfixed with 2% osmium letroxide, embedded in araldite, sectioned at 70 nm, stained with uranyl acetate/lead citrate, and examined with a JEOL JEM-100CX microscope at 80 kV.
# epididymal spermatozoa [3] = test: Computer-assisted sperm motility analysis; type: in vivo, mouse; conditions: mean ± SD, n ≧ 3
# Method: Motility analysis. Mice were terminated by asphyxiation in CO2 and cervical dislocation, and caudae epididymides were removed with vasa deferentia. Spermatozoa were collected in pre-warmed M2 medium (Sigma) by stripping the vasa deferentia and by applying mild pressure to the caudae epididymides; the cells were incubated at 37° C. for 1 hour, and videographed using a Leica DM IRB microscope fitted with a JVC TK-1281 camera. Computer-assisted sperm motility analysis was performed using a Hobson Sperm Tracker (Hobson Vision Ltd., UK) at 50 frames per second. Motility parameters of each sperm sample were measured in triplicate, collecting data from 200 sperm tracks per determination.
# epididymal sperm = test: Epididymal sperm count; type: in vivo, mouse; conditions: at loss of fertility caused by the drug
# [4] = humans; cited from earlier work
structure (smiles),measurement,setting,value
"CCCCN1C[C@H](O)[C@@H](O)[C@H](O)[C@H]1CO [NB-DNJ, N-butyldeoxynojirimycin]",fraction of spermatozoa stained with Mab18.6 or anti-sp56 (acrosomal antigens),epididymal spermatozoa [1]; 15 mg/kg/day,below 10%
same,nuclear shape of cauda epididymal sperm cells,epididymal spermatozoa [1]; 150 mg/kg/day (FIGS. 4D-4F),various abnormally shaped nuclei
same,frequency of antibody staining (acrosomal antigens),epididymal spermatozoa [1]; 1200 mg/kg/day compared with 15-150 mg/kg/day,more frequent
same,frequency of normal nuclear morphology,"epididymal spermatozoa [1]; 1200 mg/kg/day compared with 50-150 mg/kg/day, p<0.01",significantly more often
same,incidence of (near)-normal acrosomal staining among Mab18.6-positive cells,"epididymal spermatozoa [1]; 15 to 1200 mg/kg/day, average, n=3",31±10%
same,percentage of caudal spermatozoa with (near)-normal nuclei,epididymal spermatozoa [1]; minimal dose to achieve complete infertility,below 6%
same,tails and mitochondria of epididymal spermatozoa,"epididymal spermatozoa [2]; 1,200 mg/kg/day (FIG. 5)",induced a number of abnormalities
same,"acrosomal elements covering the nuclei, ultrastructural level","epididymal spermatozoa [2]; 1,200 mg/kg/day (FIGS. 5D-5F)",no typical acrosomal elements were seen
same,% motile,epididymal spermatozoa [3]; NB-DNJ 15 mg/kg/day,26 ± 16%
same,"VCL, curvilinear velocity",epididymal spermatozoa [3]; NB-DNJ 15 mg/kg/day,74 ± 31 μm/sec
same,"VSL, straight line velocity",epididymal spermatozoa [3]; NB-DNJ 15 mg/kg/day,27 ± 9 μm/sec
same,% motile,epididymal spermatozoa [3]; NB-DNJ 150 mg/kg/day,15 ± 6%
same,"VCL, curvilinear velocity",epididymal spermatozoa [3]; NB-DNJ 150 mg/kg/day,89 ± 31 μm/sec
same,"VSL, straight line velocity",epididymal spermatozoa [3]; NB-DNJ 150 mg/kg/day,27 ± 8 μm/sec
same,% motile,epididymal spermatozoa [3]; NB-DNJ 1200 mg/kg/day,17 ± 7%
same,"VCL, curvilinear velocity",epididymal spermatozoa [3]; NB-DNJ 1200 mg/kg/day,49 ± 17 μm/sec
same,"VSL, straight line velocity",epididymal spermatozoa [3]; NB-DNJ 1200 mg/kg/day,18 ± 9 μm/sec
same,% motile,epididymal spermatozoa [3]; NB-DNJ 2400 mg/kg/day,9 ± 2%
same,"VCL, curvilinear velocity",epididymal spermatozoa [3]; NB-DNJ 2400 mg/kg/day,28 ± 21 μm/sec
same,"VSL, straight line velocity",epididymal spermatozoa [3]; NB-DNJ 2400 mg/kg/day,9 ± 5 μm/sec
same,epididymal sperm count,epididymal sperm,not associated with a reduction
same,tolerability,[4],well tolerated
